Earlier results in publication PMC3411352 (Biopolymers, 2011).
Several values for one entry are separate records, joined by “and”; a condition that tells them apart may be missing. Identical values can stand only once. Like-named read-outs stand apart in the source and are kept apart here.

What was measured:
[1] = target: T1, rat κ opioid receptors (Rattus norvegicus, UniProt P34975); settings: relative to Dyn A (1-13)NH2 (0% control)
[2] = target: T1, rat κ opioid receptors; settings: for Ki: read-out: Ki ± SEM κ, κ opioid receptors
[3] = target: κ opioid receptors
[4] = target: rat μ opioid receptors (Rattus norvegicus, UniProt P33535); settings: read-out: Ki ± SEM μ
rat μ opioid receptors, sequence (P33535 whole entry): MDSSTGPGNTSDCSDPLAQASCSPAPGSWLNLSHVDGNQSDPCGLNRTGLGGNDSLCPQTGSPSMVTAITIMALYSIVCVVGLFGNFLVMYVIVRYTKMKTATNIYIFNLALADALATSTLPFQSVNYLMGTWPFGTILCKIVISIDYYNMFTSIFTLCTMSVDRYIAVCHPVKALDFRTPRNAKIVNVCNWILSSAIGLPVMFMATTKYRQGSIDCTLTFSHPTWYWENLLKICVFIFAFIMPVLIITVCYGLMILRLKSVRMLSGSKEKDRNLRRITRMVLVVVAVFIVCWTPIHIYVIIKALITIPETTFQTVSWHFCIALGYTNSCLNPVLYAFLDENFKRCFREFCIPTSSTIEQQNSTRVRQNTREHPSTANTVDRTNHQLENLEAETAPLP

[5] = target: κ opioid receptors; settings: selectivity

T1 sequence (P34975 whole entry): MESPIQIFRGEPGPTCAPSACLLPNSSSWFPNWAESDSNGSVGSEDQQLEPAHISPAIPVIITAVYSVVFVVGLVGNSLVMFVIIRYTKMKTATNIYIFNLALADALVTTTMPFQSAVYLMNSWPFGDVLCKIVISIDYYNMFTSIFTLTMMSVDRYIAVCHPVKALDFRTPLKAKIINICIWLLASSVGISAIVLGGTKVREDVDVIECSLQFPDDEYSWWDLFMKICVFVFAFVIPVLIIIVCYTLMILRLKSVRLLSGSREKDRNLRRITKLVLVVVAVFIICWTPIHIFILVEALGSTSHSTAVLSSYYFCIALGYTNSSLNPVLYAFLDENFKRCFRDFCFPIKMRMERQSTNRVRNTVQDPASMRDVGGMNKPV

Substance: Ac[Phe^1,2,3,Arg^4,D-Ala^8]Dyn A(1-11)-NH2 [Compound 1]
- AC % control @ 10 μM [1]: 88 ± 8 % control
- Ki [2]: 10 ± 3 nM

Substance: [(2S)-Mdp^1]Dyn A-(1-11)NH2 [Dynantin]
- Ki ([3]; read-out: Ki (κ)): 0.82 nM
- Ki ratio (κ/μ/δ) ([3]; selectivity): 1/259/198

Substance: [NMePhe^1]arodyn [Compound 2]
- AC % control @ 10 μM [1]: 86 ± 1 % control
- Ki [2]: 4.6 nM and 4.56 nM
- Ki ratio (μ/κ) ([2]; selectivity κ over μ): 1100
- Ki [4]: 5060 ± 790 nM

Substance: [Pro^3]Dyn A-(1-11)NH2
- Ki ratio (κ/μ/δ) [5]: 1/2110/3260
